In article PMC6877910, “Astrocyte-Targeted Transporter-Utilizing Derivatives of Ferulic Acid Can Have Multifunctional Effects Ameliorating Inflammation and Oxidative Stress in the Brain” (Oxidative Medicine and Cellular Longevity, 2019):
Values joined by “and” are separate entries in the source; they are usually repeats but may differ in a detail not shown here. Equal values may be shown once. Read-outs that look alike come from different tables or passages of the source.

Key:
[1] = biological target: T1, LAT1 (Mus musculus, UniProt Q9Z127); experiment: Ability to bind LAT1: inhibition of [14C]-L-leucine uptake in mouse primary astrocytes; format: cell-based; conditions: mean ± SD; for IC50: n = 3-4, read-out: IC50 in astrocytes (LAT1-probe substrate [14C]-L-leucine uptake)
T1 construct: mouse primary astrocytes, from which we have recently characterized LAT1 expression and function; endogenous in cells; host or cells: mouse primary astrocytes (cortex and hippocampi of 2-day-old wild-type and APP/PS1 mice)
Protocol: For the transporter binding studies, the astrocytes were seeded on 24-well plates with a density of 10 × 10^4 cells/well three days before the experiments. After removal of the culture medium, the cells were carefully washed with prewarmed HBSS (Hank's balance salt solution) containing choline chloride (125 mM), KCl (4.8 mM), MgSO4 (1.2 mM), KH2PO4 (1.2 mM), CaCl2 (1.3 mM), glucose (5.6 mM), and HEPES (25 mM) adjusted to pH 7.4 with 1 M NaOH. The cells were preincubated with 500 μL of prewarmed HBSS at 37°C for 10 min before the experiments. To study the ability of studied compounds to inhibit the uptake of a known LAT1 substrate, the cells were incubated at 37°C for 5 min with an uptake buffer (HBSS, 250 μL) containing 0.76 μM (0.25 mCi/mL or 9.85 MBq/mL) of [^14C]-L-leucine (PerkinElmer, Inc., Waltham, MA, USA) and 0.1-1000 μM of studied compound (or HBSS as blank). After incubation, the uptake was stopped by adding 500 μL of ice-cold HBSS and the cells were washed two times with ice-cold HBSS. The cells were then lysed with 500 μL of NaOH (0.1 M) for 60 min, and the lysate was mixed with 3.5 mL of Emulsifier safe cocktail (Ultima Gold, PerkinElmer, Inc., Waltham, MA, USA). The radioactivity in the cells was measured by liquid scintillation counting (MicroBeta^2 counter, PerkinElmer, Inc., Waltham, MA, USA). Half of maximum inhibitory concentration (IC50) values were calculated by nonlinear regression analysis (fitting the curve to log (concentration) vs. remaining normalized […]).

[2] = in vitro; format: in vitro ADME; conditions: mouse; for fraction unbound at 4 h, 10 μM: C57BL/6J
Protocol: The unbound fraction of FA and its derivatives 1-2 was determined at 10 μM in cell homogenate by using a Rapid Equilibrium Dialysis (RED) device (Thermo Fisher Scientific, Inc., Waltham, MA, USA). Briefly, the cell homogenate was prepared from astrocyte cell suspension (10 × 10^6 cells/mL) in HBSS with a SoniPerp 150 Plus disintegrator (MSE Ltd., London, UK) for 2 s × 3. 100 μL of cell homogenate spiked with the studied compound was added to the reaction chamber, and 350 μL of HBSS buffer was added to the buffer chamber of the RED plate. The dialysis plate was incubated at 37°C for 4 h with shaking. 50 μL of samples was taken from the reaction, and buffer chambers and equal size of buffer or blank homogenate were added, respectively, to yield identical matrices. The proteins were precipitated by adding 100 μL of ice-cold ACN (including the selected internal standard; […]

[3] = tested on: mTOR; experiment: Total amount of mTOR (ELISA) in cells; format: cell-based, mouse; conditions: 100 μM; 48 h
Protocol: Enzyme-Linked Immunosorbent Assay (ELISA) kits were used (mTOR SimpleStep ELISA Kit and NFκB p65 Total SimpeStep ELISA Kit, Abcam, Cambridge, UK) to quantify mammalian (or mechanistic) target of rapamycin (mTOR) and transcription factor NF-κB amounts, respectively. […] The control wells were treated with the solvent only (0.5% DMSO). Cells were solubilized using the provided extraction buffer with the kit, incubated on ice for 20 minutes and centrifuged at 18 000 × g for 20 min at 4°C. The supernatants were stored at -80°C till the day of the analysis. Standards and samples were then analyzed following the manufacturer's protocol (ELISA sandwich method) and by reading the absorbance with the EnVision plate reader (EnVision, PerkinElmer, Inc., Waltham, MA, USA) at 450 nm. The results were analyzed as pmol of formed mTOR or NF-κB per mL.

[4] = biological target: T2, butyrylcholinesterase (BChE) (Mus musculus, UniProt Q03311); experiment: biochemical; format: biochemical; conditions: mouse brain S9 subcellular fraction, 30 min end point, mean ± SD, n = 3; for IC50: read-out: BuChE IC50 value
T2 construct: mouse brain S9 fraction was prepared by homogenizing freshly collected mouse brain; from tissue; host or cells: mouse brain S9 fraction (9 000 x g supernatant)
Protocol: Briefly, mouse brain S9 fraction was prepared by homogenizing freshly collected mouse brain with 50 mM Tris-buffered saline (TBS) (pH 7.4) (1 : 4, w/v), centrifuging the homogenate at 9 000 × g for 20 min at 4°C and collecting the supernatant. The supernatant was then diluted at 1 : 10 with phosphate-buffered saline (100 mM; pH 7.0) and mixed with Ellman's reagent (5,5′-dithiobis-(2-nitrobenzoic acid); DTNB; 1 mM) and studied compounds in DMSO (DMSO concentration was less than 0.5%) on a 96-well plate as 3 parallel assays.

[5] = tested on: primary astrocytes; experiment: Astrocyte cell growth / viability (resazurin); format: cell-based; conditions: for Effect on astrocyte viability at low concentrations: 5-100 μM, 72 h; for Concentrations with significant antiproliferative efficacy on astrocytes: 72 h incubation, 5-400 μM
Protocol: Primary astrocytes were seeded at the density of 10 × 10^3 cells/well onto collagen-coated 96-well plates. The cells were used for the proliferation experiments one day after seeding. Concentrations of 5-400 μM FA or its LAT1-utilizing derivatives 1-3 were added into the growth medium and incubated for 3 days. Each day, the cell viability was determined by resazurin cell proliferation kit (Sigma, St. Louis, MO, USA), which is directly proportional to aerobic respiration and cellular metabolism of cells. The samples were measured fluorometrically by monitoring the increase in fluorescence at λex 560 nm and λem 590 nm (EnVision, PerkinElmer, Inc., Waltham, MA, USA). The cell viability was also followed by visualizing the wells with microscopy. The ability of compounds to inhibit the viability of the cells was expressed as percentages (%) compared to the untreated controls.

[6] = 10 μM in astrocyte cell homogenate, mean ± SD, n = 3, read-out: Unbound fraction fu,cell

T1 sequence (Q9Z127 whole entry): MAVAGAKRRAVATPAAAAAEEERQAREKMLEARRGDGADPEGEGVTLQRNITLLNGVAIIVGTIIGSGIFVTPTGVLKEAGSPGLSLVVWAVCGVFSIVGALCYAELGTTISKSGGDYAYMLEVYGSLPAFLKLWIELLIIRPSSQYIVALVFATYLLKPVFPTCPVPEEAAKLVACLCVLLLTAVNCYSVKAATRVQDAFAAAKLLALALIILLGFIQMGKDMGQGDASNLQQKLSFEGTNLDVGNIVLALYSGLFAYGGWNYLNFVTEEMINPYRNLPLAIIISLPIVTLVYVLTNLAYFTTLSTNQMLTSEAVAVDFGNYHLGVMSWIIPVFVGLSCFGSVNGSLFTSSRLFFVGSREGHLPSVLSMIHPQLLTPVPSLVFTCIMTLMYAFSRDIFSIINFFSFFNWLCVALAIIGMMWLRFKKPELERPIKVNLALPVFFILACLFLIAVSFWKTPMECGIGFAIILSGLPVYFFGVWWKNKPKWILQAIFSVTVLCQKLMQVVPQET
T1 sequence (P10852 whole entry partner): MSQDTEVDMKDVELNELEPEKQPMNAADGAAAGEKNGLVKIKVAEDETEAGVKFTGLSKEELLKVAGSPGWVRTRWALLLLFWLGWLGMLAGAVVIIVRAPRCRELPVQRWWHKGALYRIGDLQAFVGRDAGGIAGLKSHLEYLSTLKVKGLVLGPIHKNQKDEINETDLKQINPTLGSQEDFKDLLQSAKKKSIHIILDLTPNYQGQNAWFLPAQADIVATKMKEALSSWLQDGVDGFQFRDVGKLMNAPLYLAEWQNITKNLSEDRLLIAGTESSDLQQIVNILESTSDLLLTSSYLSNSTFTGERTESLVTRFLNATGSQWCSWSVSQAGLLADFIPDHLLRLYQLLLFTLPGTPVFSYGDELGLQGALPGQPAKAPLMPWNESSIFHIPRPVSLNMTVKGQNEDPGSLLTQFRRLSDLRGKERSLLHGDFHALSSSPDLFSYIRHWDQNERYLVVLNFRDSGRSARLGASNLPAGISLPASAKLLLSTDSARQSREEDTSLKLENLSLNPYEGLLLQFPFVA
T2 sequence (Q03311 30-603): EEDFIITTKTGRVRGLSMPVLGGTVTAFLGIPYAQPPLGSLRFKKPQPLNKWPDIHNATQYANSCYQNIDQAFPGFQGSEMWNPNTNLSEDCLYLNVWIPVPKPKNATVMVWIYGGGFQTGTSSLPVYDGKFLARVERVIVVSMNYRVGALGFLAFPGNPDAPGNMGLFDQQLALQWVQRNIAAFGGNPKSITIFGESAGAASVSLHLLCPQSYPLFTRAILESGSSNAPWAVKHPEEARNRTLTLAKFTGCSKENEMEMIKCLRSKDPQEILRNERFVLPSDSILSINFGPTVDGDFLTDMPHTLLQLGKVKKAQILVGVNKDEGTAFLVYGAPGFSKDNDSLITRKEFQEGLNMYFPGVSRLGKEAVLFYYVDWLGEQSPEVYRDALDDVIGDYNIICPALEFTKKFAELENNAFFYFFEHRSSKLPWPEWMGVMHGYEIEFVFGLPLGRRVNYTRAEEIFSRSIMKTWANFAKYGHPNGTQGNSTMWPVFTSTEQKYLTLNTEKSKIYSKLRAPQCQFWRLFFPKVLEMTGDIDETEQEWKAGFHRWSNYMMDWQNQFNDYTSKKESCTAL

Row | SMILES | IC50 in astrocytes (LAT1-probe substrate [14C]-L-leucine uptake) ([1]; n = 3-4) | fraction unbound at 4 h, 10 μM ([2]; tissue homogenate) | Unbound fraction fu,cell ([2]; tissue homogenate) | Reduction of total amount of mTOR [3] | BuChE IC50 value [4] | Effect on astrocyte viability at low concentrations [5] | Concentrations with significant antiproliferative efficacy on astrocytes [5] | IC50 [1] | fraction unbound at 4 h, 10 μM [2, 6] | Increase of the amount of mTOR [3] | IC50 [4]
1 | COc1cc(/C=C/C(=O)O)ccc1O [FA, trans-4-hydroxy-3-methoxycinnamic acid, reference compound] | No inhibition | 1 | Fully unbound | did not affect | No inhibition | increased the viability | above 200 μM | – | – | – | –
2 | COc1cc(C=CC(=O)NCc2cccc(CC(N)C(=O)O)c2)ccc1O (centres unmarked) [FA-derivative 1] | – | – | – | – | – | increased the viability | above 200 μM | 2.2 µM and 2.15 µM | 0.163 ± 0.0272 | approximately 28% | 220.8 ± 1.14 µM
3 | COc1cc(C=CC(=O)Nc2cccc(CC(N)C(=O)O)c2)ccc1O (centres unmarked) [FA-derivative 2] | – | – | – | approximately 32% | No inhibition | increased the viability | above 200 μM | 8.9 ± 1.25 µM | 0.0806 ± 0.0054 | – | –
4 | COc1cc(C=CC(=O)Oc2cccc(CC(N)C(=O)O)c2)ccc1O (centres unmarked) [FA-derivative 3] | – | – | – | approximately 14% | – | – | above 200 μM | 28.7 ± 1.15 µM | – | – | 236.1 ± 1.26 µM
